From article PMC7016291 (Acta Pharmaceutica Sinica. B, 2019)
Values joined by “and” are separate entries in the source; they are usually repeats but may differ in a detail not shown here. Identical values can stand only once. Like-named read-outs stand apart in the source and are kept apart here.

Legend:
HIV-2 (ROD) = experiment: Anti-HIV activity in MT-4 cells; assay type: cell-based
HIV-1 RT RNase H = HIV-1 RT RNase H (Human immunodeficiency virus type 1 group M subtype B, UniProt P03366); experiment: HIV-1 RT RNase H inhibition; assay type: biochemical; conditions: for RNase H IC50: mean of four separate experiments
WT HIV-1 RT = WT HIV-1 RT (Human immunodeficiency virus type 1 group M subtype B, UniProt P03366); experiment: HIV-1 RT inhibition assay; assay type: biochemical; conditions: for RT IC50: WT HIV-1 RT, mean of at least two separate experiments
MT-4 cells = experiment: Cytotoxicity in uninfected MT-4 cells; assay type: cell-based; conditions: uninfected MT-4 cell viability reduced by 50%
HIV-1 Y181C = experiment: Anti-HIV-1 activity against mutant strain Y181C in MT-4 cells; assay type: cell-based
HIV-1 F227L + V106A = experiment: Anti-HIV-1 activity against double mutant F227L + V106A in MT-4 cells; assay type: cell-based
HIV-1 E138K = experiment: Anti-HIV-1 activity against mutant strain E138K in MT-4 cells; assay type: cell-based
[1] = system: HIV-1 RES056 (K103N/Y181C); experiment: Anti-HIV-1 activity against double mutant RES056 in MT-4 cells; assay type: cell-based
HIV-1 L100I = experiment: Anti-HIV-1 activity against mutant strain L100I in MT-4 cells; assay type: cell-based
HIV-1 K103N = experiment: Anti-HIV-1 activity against mutant strain K103N in MT-4 cells; assay type: cell-based
HIV-1 Y188L = experiment: Anti-HIV-1 activity against mutant strain Y188L in MT-4 cells; assay type: cell-based
[2] = Cytotoxicity in uninfected MT-4 cells; assay type: cell-based; conditions: human, uninfected MT-4 cells
[3] = Kinetic aqueous solubility; conditions: kinetic from dmso stock
[4] = Plasma protein binding, dialysis equilibrium method, human
[5] = Plasma protein binding, dialysis equilibrium method, rat
[6] = read-out: EC50 ROD, MT-4 cells, HIV-2 strain ROD
[7] = Human immunodeficiency virus 1, MT4, read-out: EC50 Y181C
[8] = Human immunodeficiency virus 1, MT4, read-out: EC50 F227L + V106A
[9] = Human immunodeficiency virus 1, MT4, read-out: EC50 E138K
[10] = Human immunodeficiency virus 1, MT4, read-out: EC50 RES056
[11] = Human immunodeficiency virus 1, MT4, read-out: EC50 L100I
[12] = Human immunodeficiency virus 1, MT4, read-out: EC50 K103N
[13] = Human immunodeficiency virus 2, MT4, read-out: EC50 ROD
[14] = Human immunodeficiency virus 1, MT4, read-out: EC50 Y188L
[15] = aqueous solution at pH 2.0, pH 2, aqueous buffer
[16] = aqueous solution at pH 7.0, pH 7, aqueous buffer
[17] = aqueous solution at pH 7.4, pH 7.4, aqueous buffer

Compound | CC50 (MT-4 cells) [µM] | EC50 (HIV-1 Y181C; [7]) [µM] | EC50 (HIV-1 F227L + V106A; [8]) [µM] | EC50 (HIV-1 E138K; [9]) [µM] | EC50 [1, 10] [µM] | EC50 (HIV-1 L100I; [11]) [µM] | EC50 (HIV-1 K103N; [12]) [µM] | EC50 (HIV-2 (ROD); [13]) [µM] | IC50 (HIV-1 RT RNase H) [µM] | EC50 (HIV-1 Y188L; [14]) [µM] | IC50 (WT HIV-1 RT) [µM] | CC50 at 4 days [2] [µM] | solubility kinetic ([3]; FaSSIF) | solubility kinetic [3, 15] | solubility kinetic [3, 16] | solubility kinetic [3, 17] | other results
COC(=O)CNc1nc(Nc2ccc(C#N)cc2)nc(Oc2c(C)cc(-c3ccc(C#N)cc3)cc2C)n1 [Compound 5a, Methyl (4-((4ʹ-cyano-3,5-dimethyl-[1,1ʹ-biphenyl]-4-yl)oxy)-6-((4-cyanophenyl)-amino)-1,3,5-triazin-2-yl) glycinate] | > 125 | – | – | – | – | – | – | – | – | – | – | – | – | – | – | – | EC50 (HIV-2 (ROD); [6]): 0.56 ± 0.14 µM; RNase H IC50 (HIV-1 RT RNase H): >600 µg/mL; RT IC50 (WT HIV-1 RT): 0.047 ± 0.003 µg/mL
COC(=O)CNc1nc(Nc2ccc(C#N)cc2)nc(Nc2c(C)cc(-c3ccc(C#N)cc3)cc2C)n1 [Compound 6b, Methyl (4-((4ʹ-cyano-3,5-dimethyl-[1,1ʹ-biphenyl]-4-yl)amino)-6-((4-cyanophenyl)amino)-1,3,5-triazin-2-yl) glycinate] | > 125 | – | – | – | – | – | – | – | – | – | – | – | – | – | – | – | EC50 (HIV-2 (ROD); [6]): 21.5 µM; RNase H IC50 (HIV-1 RT RNase H): >600 µg/mL; RT IC50 (WT HIV-1 RT): 0.033 ± 0.004 µg/mL
Cc1cc(-c2ccc(C#N)cc2)cc(C)c1Nc1nc(NCC2CCOC2)nc(Nc2ccc(C#N)cc2)n1 (stereo not drawn) [Compound 6e, 4ʹ-((4-((4-Cyanophenyl)amino)-6-(((tetrahydrofuran-3-yl)methyl)amino)-1,3,5-triazin-2-yl)amino)-3ʹ,5ʹ-dimethyl-[1,1ʹ-biphenyl]-4-carbonitrile] | – | 0.011 ± 0.001 | ≥ 16.4 | 0.0053 ± 0.0033 | 0.06 ± 0.007 | 0.022 ± 0.006 | 0.0034 ± 0.0005 | 7.91 ± 5.7 | > 1160 | 0.05 ± 0.008 | 0.106 | > 125 | 60.5 µg/mL and 117 µM | 12.1 µg/mL and 23.4 µM | < 0.806 µg/mL and < 1.56 µM | < 0.806 µg/mL and < 1.56 µM | –
Cc1cc(-c2ccc(C#N)cc2)cc(C)c1Nc1nc(Nc2ccc(C#N)cc2)nc(N2CCN(C)CC2)n1 [Compound 6i, 4ʹ-((4-((4-Cyanophenyl)amino)-6-(4-methylpiperazin-1-yl)-1,3,5-triazin-2-yl)amino)-3ʹ,5ʹ-dimethyl-[1,1ʹ-biphenyl]-4-carbonitrile] | – | 0.017 ± 0.005 | ≥ 3.69 | 0.01 ± 0.002 | 0.35 ± 0.08 | 0.029 | 0.0074 ± 0.0021 | > 3.69 | > 1160 | 0.067 ± 0.016 | 0.227 | 3.69 ± 2.98 | 60.6 µg/mL and 117 µM | 77.3 µg/mL and 150 µM | < 0.804 µg/mL and < 1.56 µM | < 0.804 µg/mL and < 1.56 µM | –
Cc1cc(-c2ccc(C#N)cc2)cc(C)c1Nc1nc(Nc2ccc(C#N)cc2)nc(N2CCC(O)C2)n1 (stereo not drawn) [Compound 6k, 4ʹ-((4-((4-Cyanophenyl)amino)-6-(3-hydroxypyrrolidin-1-yl)-1,3,5-triazin-2-yl)-amino)-3ʹ,5ʹ-dimethyl-[1,1ʹ-biphenyl]-4-carbonitrile] | – | 0.003 ± 0.0002 | 1.04 | 0.0035 ± 0.0008 | 0.06 | 0.0041 ± 0.0005 | 0.0023 ± 0.0005 | > 4.54 | > 1190 | 0.01 ± 0.003 | 0.103 | 4.54 ± 2.56 | 53.4 µg/mL and 104 µM | 53.7 µg/mL and 104 µM | < 0.784 µg/mL and < 1.56 µM | < 0.784 µg/mL and < 1.56 µM | –
O=C1Nc2ccc(Cl)cc2[C@@](C#CC2CC2)(C(F)(F)F)O1 [EFV, reference compound] | >2.0 | – | – | – | – | – | – | – | – | – | – | – | – | – | – | – | EC50 (HIV-1 Y181C; read-out: EC50 Y181C, MT-4 cells, single mutant): 0.0013 ± 0.0001 µM; EC50 (HIV-1 F227L + V106A; read-out: EC50 F227L + V106A, MT-4 cells, double mutant): 0.084 ± 0.02 µM; EC50 (HIV-1 E138K; read-out: EC50 E138K, MT-4 cells, single mutant): 0.0015 ± 0.0001 µM; EC50 ([1]; read-out: EC50 RES056, MT-4 cells, double mutant K103N/Y181C): 0.071 ± 0.036 µM; EC50 (HIV-1 L100I; read-out: EC50 L100I, MT-4 cells, single mutant): 0.014 µM; EC50 (HIV-1 K103N; read-out: EC50 K103N, MT-4 cells, single mutant): 0.03 ± 0.011 µM; EC50 (HIV-1 Y188L; read-out: EC50 Y188L, MT-4 cells, single mutant): 0.082 ± 0.007 µM
CC(=O)CC(c1ccccc1)c1c(O)c2ccccc2oc1=O (stereo not drawn) [Warfarin, reference compound] | – | – | – | – | – | – | – | – | – | – | – | – | – | – | – | – | recovery at 2 μmol/L [4]: 86%; recovery at 2 μmol/L [5]: 99%
